# Experiments:
# [1] = system: DBM2; experiment: In vivo SGX523 and erlotinib therapeutic efficacy study, DBM2 xenograft; parameters: species or system mice
# Procedure: (§1) All animal studies were approved by the IACUC of the Van Andel Research Institute. Each GBM cell line (5×10^5 cells in 100 μl PBS) was inoculated into both SCID and SCIDhgf mice subcutaneously. For V13 tumor line, tumors were transplanted into SCIDhgf mice at the flank to initiate tumor growth. Tumor size was measured with a caliper twice a week. When average tumor size reached 100 mm^3, mice were grouped (n=10) for treatment as indicated. Dosing with SGX523 and/or erlotinib was delivered once daily by oral gavage for 3 weeks. Vehicles used were 0.5% MC 400 with 0.05% Tween 80 (SGX523) and 0.5% (w/v) methyl cellulose (erlotinib). Tumor size was measured by a caliper twice a week. Body weight was measured once a week. All mice were sacrificed 24 h after last dose. To determine the effectiveness of treatment, the average tumor size of each group from the last measurement was analyzed with Student's t test (α=0.05).
# [2] = system: U251M2; experiment: In vivo SGX523 and erlotinib therapeutic efficacy study, U251M2 xenograft; parameters: species or system mice; details: for tumor sensitivity to single agent: either drug alone
# Procedure: as §1
# [3] = system: X01-GB; experiment: In vivo efficacy study, X01-GB GBM stem cell tumors; parameters: species or system mice; details: for tumor response: X01-GB tumors, erlotinib at 75 mg/kg
# Procedure: as §1
# [4] = system: SF295 SQ1; experiment: Serum HGF ELISA, SF295 SQ1 tumor-bearing mice; format: in vivo; details: end of efficacy study, mean ± SD
# Procedure: (§2) At the end of the efficacy study, mouse serum was collected from each group and kept at −80° C. until use. For HGF expression level, 50 μl of serum was used for an ELISA test (R&D) according to the kit instructions. At least five samples were tested. Data represent mean±SD. Student's t test was used for statistical analysis.
# [5] = system: U87M2; experiment: In vivo SGX523 and erlotinib therapeutic efficacy study, U87M2 xenograft; parameters: species or system mice
# Procedure: as §1
# [6] = system: U87M2; experiment: Serum HGF ELISA, U87M2 tumor-bearing mice; format: in vivo; details: end of efficacy study, mean ± SD
# Procedure: as §2
# [7] = system: U251M2, T98G, and DBM2 cells; experiment: HGF- and EGF-induced uPA activity in GBM cells without autocrine HGF; format: cell-based, human; details: for cross inhibition between MET and EGFR pathways (uPA activity): early time point in vitro
# Procedure: (§3) Cells were grown overnight in DMEM/10% FBS. Drugs were dissolved in DMSO and serially diluted from stock concentrations into DMEM/10% FBS medium and added to the appropriate wells. Immediately after drug or reagent addition, HGF/SF (60 ng/ml) was added to all wells (with the exception of wells used as controls to calculate basal growth and uPA-plasmin activity levels). Twenty-four hours after drug and HGF/SF addition, plates were processed for the determination of plasmin activity as described previously (22). Wells were washed twice with DMEM (without phenol red; Life Technologies, Inc.), and 200 μl of reaction buffer [50% (v/v) 0.05 units/ml plasminogen in DMEM (without phenol red), 40% (v/v) 50 mM Tris buffer (pH 8.2), and 10% (v/v) 3 mM Chromozyme PL (Boehringer Mannheim) in 100 mM glycine solution] was added to each well. The plates were then incubated at 37° C., 5% CO2, for 4 h, at which time the absorbance was read on an automated spectrophotometric plate reader at the single wavelength of 405 nm.
# [8] = system: U118; experiment: Serum HGF ELISA, U118 tumor-bearing mice; format: in vivo; details: end of efficacy study, mean ± SD
# Procedure: as §2
# [9] = system: V13; experiment: In vivo efficacy study, V13 GBM patient-derived xenograft; parameters: species or system mice; details: for tumor response: V13 in SCIDhgf mice, Erlotinib at 75 mg/kg
# Procedure: The V13 GBM xenograft tumor line was generated from the primary tumor of a GBM patient upon surgical removal. The fresh tumor specimen was split into two pieces, one to be divided and implanted into 5 nude mice to propagate tumor growth and another piece to be directly digested with 0.05% trypin into single cells and grown in Neuro-basal medium with 10% FBS supplemented with EGF (20 ng/ml), bFGF (20 ng/ml) and 1% penicillin and streptomycin at 37° C. The tumors growing from nude mice were analyzed using FISH to compare them with the original tumor and were further transplanted into the host nude mice to maintain tumor growth in vivo. All studies involving human subjects and human tissues were approved by IRB committee of Van Andel Research Institute.
# as §1
# [10] = system: U87M2 cells; experiment: uPA activity in HGF-autocrine U87M2 cells; format: cell-based, human; details: even when stimulated by EGF
# Procedure: as §3
# [11] = system: U118; experiment: In vivo SGX523 and erlotinib therapeutic efficacy study, U118 xenograft; parameters: species or system mice; details: U118 subcutaneous; P<0.05 at all three doses
# Procedure: as §1
# [12] = system: SF295SQ1; experiment: In vivo SGX523 and erlotinib therapeutic efficacy study, SF295SQ1 xenograft; parameters: species or system mice; details: SF295SQ1 subcutaneous; P<0.05 at all three doses
# Procedure: as §1
# [13] = system: U87M2 cells; experiment: HGF/EGF-induced downstream signaling, Western blot, U87M2; format: cell-based, human; details: 1-10 μM, regardless of additional HGF or EGF stimulation
# Procedure: (§4) Cells were seeded in 10-cm dishes and grown until 80% confluent. After serum starvation overnight, cells were treated with or without SGX523 for 4 h with (or without) human HGF/SF or EGF (100 ng/ml) for 20 minutes at 37° C. The cells were washed twice with ice-cold 1×PBS, and whole cell lysates were prepared using RIPA buffer. The protein concentrations were determined by DC protein assay. Equal amounts of total protein (30 μg) from cell lysates were loaded on a 4-20% SDS-PAGE gel (invitrogen), transferred to a polyvinylidene difluoride (PVDF) membrane (Invitrogen), and detected using an ECL Western Blotting Detection System (GE Healthcare). Antibodies used were human Met (clone 25H2,), phospho-Met (Y1234/1235), human EGFR (clone D38B1), phosphor-EGFR(Y1068), AKT, phospho-AKT (S473), p42/44 MAPK, phospho-p42/44 MAPK (T202/Y204) (all from Cell Signaling Technology); β-actin (clone AC-15, Abcam); and anti-HGFantibody (Clone 7-2, provided by Dr. Brian Cao at Van Andel Research Institute). Secondary antibodies used were goat anti-rabbit IgG-HRP and goat anti-mouse IgG-HRP (Santa Cruz Biotechnology).
# [14] = system: DBM2 cells; experiment: HGF/EGF-induced downstream signaling, Western blot, DBM2; format: cell-based, human
# Procedure: as §4
# [15] = system: GBM; details: phase II clinical trials; cited from earlier work
# [16] = system: recurrent GBM; details: clinical trials against recurrent GBM; cited from earlier work
Compound,tumor sensitivity to single agent [2],tumor response [3],"Serum HGF concentration ([4]; SF295 SQ1, SCID mice)","Serum HGF concentration ([4]; SF295 SQ1, SCIDhgf mice) [pg/mL]","Serum HGF concentration ([6]; U87M2, SCID mice)","Serum HGF concentration ([6]; U87M2, SCIDhgf mice) [pg/mL]",cross inhibition between MET and EGFR pathways (uPA activity) [7],"Serum HGF concentration ([8]; U118, SCID mice)","Serum HGF concentration ([8]; U118, SCIDhgf mice) [pg/mL]",tumor response [9],also measured
"C#Cc1cccc(Nc2ncnc3cc(OCCOC)c(OCCOC)cc23)c1 [Erlotinib, erlotinib]",tolerate,very sensitive,858 ± 670 ^ pg/ml,4000 ± 1132,1277 ± 679 pg/mL,8233 ± 3311,no evidence of cross inhibition,348.7 ± 172^ pg/ml,2940 ± 746,induced tumor regression,"tumor sensitivity to single agent [1]: somewhat sensitive; p-EGFR in tumor lysates ([3]; X01-GB, Western blot with tumor lysates): significantly reduced; prolonged inhibition of U87M2 tumor growth ([5]; FIG. 7: SGX523 90 or 120 mg/kg, erlotinib 150 mg/kg, p<0.05 for combination): failed; inhibition of EGF-induced uPA activity ([7]; within 24 hrs, U251M2, T98G, DBM2 cells): specifically blocked; p-EGFR expression in tumor lysates ([9]; V13, Western blot with tumor lysates): significantly reduced"
Cn1cc(-c2ccc3nnc(Sc4ccc5ncccc5c4)n3n2)cn1 [SGX523],tolerate,do not respond,262 ± 138 ^4 pg/ml,4214 ± 1084,152 ± 85 ^4 pg/ml,6330 ± 2240,no evidence of cross inhibition,"91 ± 85 ^5, 6 pg/ml",4149 ± 1264,no response,"inhibition of basal level of uPA activity [10]: did inhibit the basal level of uPA activity; xenograft tumor sensitivity [11]: sensitive to SGX523 in a dose-dependent manner; xenograft tumor sensitivity [12]: sensitive to SGX523 in a dose-dependent manner; tumor growth response ([1]; SGX523 60 mg/kg): no response; tumor growth response at increased dose ([2]; 120 mg/kg): did not improve the responsive; tumor growth response ([2]; SGX523 60 mg/kg): no response; inhibition of p-Met and downstream MAPK and AKT pathways [13]: can inhibit p-Met and downstream MAPK and AKT pathways; tumor regrowth under continuous dosing ([5]; U87M2, continuous dosing with SGX523): start to grow back after 2 weeks; tumor regression ([5]; U87M2, first week after treatment started): induces U87M2 tumor regression; xenograft tumor sensitivity ([5]; U87M2 subcutaneous, P<0.05 at all three doses): sensitive to SGX523 in a dose-dependent manner; inhibition of EGF induced p-EGFR [14]: did not inhibit; inhibition of HGF-induced uPA activity ([7]; SGX523 at 0.1 μM after 24 h, U251M2, T98G, DBM2 cells): inhibited HGF-induced uPA activity"
COc1cc2nccc(Oc3ccc(NC(=O)C4(C(=O)Nc5ccc(F)cc5)CC4)cc3)c2cc1OC [XL184],,,,,,,,,,,clinical efficacy [15]: promising efficacy
AMG102: a neutralizing antibody against HGF,,,,,,,,,,,clinical outcome [16]: failed in clinical trials

# — patent publication US20120100157A1, “Biomarker and Method for Predicting Sensitivity to MET Inhibitors” (Van Andel Research Institute, priority 2010, published 2012)
